Two compounds from patent US12195745B2, “Compositions and methods for modulating transduction efficiency of adeno-associated viruses” (Massachusetts Eye and Ear Infirmary, priority 2018, dated 2025) can be followed below.

Experiment [1] relates to Huh7 cells. Briefly: Neuraminidase inhibitor pre-treatment of Huh7 cells followed by AAV transduction (luciferase). The note with it: for effect on transduction, short pre-treatment: 1 hour pre-treatment; for effect on AAV4 entry / effect on AAV5 transduction / effect on Anc80 transduction / decrease of rh32.33 transduction: 24 hours pre-treatment, 10,000 VG/cell; for decrease of rh32.33 transduction: CMV.Luciferase.SVPA. Type of experiment: cell-based, human. The method, then: All luciferase transduction assays were done by seeding 10,000 cells per well in black-bottom 96 well plates overnight. When indicated, cells were pre-incubated with 200 pfu/cell of WT hAd5 (University of Pennsylvania Vector core) in D10 for two hours, then hAd5-containing medium was removed prior to transduction. Cells were transduced with either AAV at 1×10^4 VG/cell in 50 μL serum-free DMEM (AAVR rescue experiments) for 1 h at 37° C., then D10 was added to a total volume of 200 μL, or 100 μl per well of crude virus prep (chimeric, and point mutant capsid experiments) was added for 1 h at 37° C., removed, then D10 was added. Transduction levels were analyzed by luciferase assay 48 hours post-transduction.
Two days post-transduction, cell culture medium was removed and cells were lysed in 20 μL per well of 1× Reporter Lysis Buffer (Promega, Cat#), then frozen at −80° C. After thaw, ffLuc expression was measured in Relative Light Units/s on a Synergy H1 Hybrid Multi-Mode Microplate reader using 100 μL luciferin buffer [200 mM Tris pH 8, 10 mM MgCl2, 300 μM ATP, 1× Firefly Luciferase signal enhancer (Thermo Cat#16180), and 150 μg/mL D-Luciferin].
Because NEU1 is an enzyme and CTSA, also identified in the entry screen (FIG. 5C), is required for maintaining the catalytically active conformation of NEU1 (D'Azzo et al., 1982, PNAS USA, 79:4535-9; and Vinogradova et al., 1998, Biochem. J. 330(Pt 2):641-50), whether enzymatic activity of NEU1 is required for its function was tested in rh32.33 and AAV4 entry. Two different sialic acid analog neuraminidase inhibitor compounds were used, Zanamivir (von Itzstein et al., 1993, Nature, 363:418-23) and DANA (Meindl et al., 1974, Virology, 58:457-63), to do a dose response on Huh7 cells and assess the effect on entry of different AAVR dependent and AAVR independent serotypes. Two different AAVR-dependent serotypes, AAV5 and Anc80, and two AAVR-independent serotypes, rh32.33 and AAV4, were tested. Importantly, AAV4 and AAV5 were examined because both AAVs use sialic acid as an attachment factor (Kaludov et al., 2001, J. Virol., 75:6884-93; and Walters et at, 2001, J. Biol. Chem., 276:20610-6) yet differ in their AAVR dependence.
Briefly, 10,000 cells per well were plated in 96-well plates 1 day prior to inhibitor treatment. […] When indicated, control or inhibitor treated cells were treated with 50 mU/mL Neuraminidase from Vibrio cholera Type III (Sigma Aldrich, Cat#N7885) in serum-free DMEM, followed by AAV transduction as described.

For experiment [2], the system named is Huh7 cells. Nature of the experiment: Inhibitor pre-treatment, then Neuraminidase from Vibrio cholera, then AAV transduction. Type of experiment: cell-based, human. The settings on record: 2 mM inhibitor 24 h, then 2 h Neuraminidase from Vibrio cholera. How it is done: Briefly, 10,000 cells per well were plated in 96-well plates 1 day prior to inhibitor treatment. Cells were incubated with the indicated concentration of Zanamivir (Sigma SML0492) or DANA (EMD Millipore 252926) for 24 hours prior to transduction in a total volume of 100 μL D10. When indicated, control or inhibitor treated cells were treated with 50 mU/mL Neuraminidase from Vibrio cholera Type III (Sigma Aldrich, Cat#N7885) in serum-free DMEM, followed by AAV transduction as described.
Because NEU1 and CTSA play a role in cellular glycosylation states, confirmation was desired that the entry defect was not due to an overall alteration in glycosylation at the cell surface, leading to an attachment, defect. To do this, cells were first pre-treated for 24 h with Zanamivir or DANA, followed by treatment with a neuraminidase from Vibrio cholera to remove any sialic acid that may have accumulated at the cell surface due to NEU1 inhibition.
The indicated pre-chilled vector was then added to cells on ice, incubated for 1 hour for the vectors to undergo attachment, unbound vector was washed away using ice-cold PBS, then transduction was allowed to proceed and vector transduction assessed in the different treatment conditions by fold-change relative to untreated control cells via luciferase assay. […]

As to `CC(=O)N[C@H]1[C@H]([C@H](O)[C@H](O)CO)OC(C(=O)O)=C[C@@H]1O` [DANA], in the experiment on Huh7 cells [1], the “effect on transduction, short pre-treatment” value is on record as “did not show any decrease in transduction”; the “effect on AAV4 entry” value was “slightly decreased AAV4 entry”; the “effect on AAV5 transduction” value is listed as “Neither of the AAVR-dependent serotypes, AAV5 or Anc80, showed a decrease in transduction”; the “effect on Anc80 transduction” value is recorded as “Neither of the AAVR-dependent serotypes, AAV5 or Anc80, showed a decrease in transduction”. Further, the “decrease of rh32.33 transduction” value in the experiment with Huh7 cells [1] is reported as “roughly ten-fold”. Also, the “reversal of rh32.33 entry inhibition after neuraminidase treatment” value in the experiment with Huh7 cells [2] is on record as “a reversal of entry inhibition was not observed”.
As to `CC(=O)N[C@H]1[C@H]([C@H](O)[C@H](O)CO)OC(C(=O)O)=C[C@@H]1N=C(N)N` [Zanamivir], in the experiment with Huh7 cells [1], the “effect on transduction, short pre-treatment” value is listed as “did not show any decrease in transduction”; the “effect on AAV4 entry” value is “slightly decreased AAV4 entry”; the “effect on AAV5 transduction” value is given as “Neither of the AAVR-dependent serotypes, AAV5 or Anc80, showed a decrease in transduction”; the “effect on Anc80 transduction” value is listed as “Neither of the AAVR-dependent serotypes, AAV5 or Anc80, showed a decrease in transduction”. For the same compound, in the experiment on Huh7 cells [1], the “decrease of rh32.33 transduction” value is “roughly ten-fold”. Besides, the “reversal of rh32.33 entry inhibition after neuraminidase treatment” value in the experiment with Huh7 cells [2] is “a reversal of entry inhibition was not observed”.
